Where “and” joins values, the source holds several entries; their conditions need not be identical. Equal entries are not always repeated. Entries after “also recorded” stand apart in the source; their conditions may differ. Where a SMILES comes first, the peptide text is derived from it. Bridges are numbered along the chain shown (N, C = ends). [ ]: non-standard residue; d: D form. Ala(cPent) = N[C@@H](CC1CCCC1)C(=O)O; AllylGly = C=CC[C@H](N)C(=O)O
What was measured:
[1] = Blood pressure measurements after intravenous injection
Method: Mean, systolic and diastolic arterial blood pressure and a heart rate were measured through a catheter (PE 50 filled with heparinized saline) inserted in the right carotid artery and connected to a Micro-Med transducer (model TDX-300, USA) linked to a blood pressure Micro-Med analyzer (model BPA-100c). […] Blood pressure was recorded each second for up to 1000 seconds following intravenous injection. […] Data represents the mean±SEM of 4-5 rats for each condition.

[2] = Body temperature (hypothermia) after intrathecal injection; type: in vivo, rat; details: vs saline
Method: Body temperature was measured using a thermistor probe inserted into the rectum of the rats. Animals were individually acclimatized to manipulations and thermistor probe 5 min/day for three consecutive days. […] Changes in body temperature (Δ body temperature) were determined from baseline for each time and each animal. Data represents the mean±SEM of 5-6 rats for each condition.
Data are expressed as mean±standard errors of the mean (SEM). All graphs and statistical analysis were performed using GraphPad Prism™ 7 (GraphPad software, La Jolla, CA, USA). […] A two-way ANOVA followed by Tukey's multiple comparisons test was used to determine the significant differences in changes in body temperature between different concentrations of compounds and saline (FIG. 9). The % MPE for the tail-flick test and the areas under the curve for the formalin test were analyzed using a one-way ANOVA followed by a Dunnett's multiple comparisons test to compare different concentrations of compounds and saline treatment (FIGS. 2B, 4B, 7A-B and 8B-D). […] Nonlinear regression using three parameters was performed for % of ileum relaxation and IC50 value was obtained from the resulting dose-response curve (FIG. 11). A difference in response was considered significant with p-values *p<0.05, **p<0.01, ***p<0.001 and **p<0.0001.

hNTS1 receptor = biological target: T1, hNTS1 receptor (Homo sapiens, UniProt P30989); assay: Competitive radioligand binding assay on the hNTS1 receptor; details: IC50 NTS1, displacement of 125I-[Tyr3]-NT, membranes of CHO-K1 cells expressing hNTS1
T1 construct: membranes prepared from them
Summary of the method: (§1)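 Membranes from CHO-K1 cells expressing hNTS1 (15 µg, […] ¹²⁵I-[Tyr³]-NT) or 1321N1 cells expressing hNTS2 (50 µg, […] radioligand) were incubated with analogues at 10⁻¹¹–10⁻⁴ M for 60 min at 25 °C in Tris-HCl pH 7.5/0.2% BSA. Filtration and γ-counting followed; nonspecific binding was defined with 10⁻⁵ M NT(8-13), and IC50 was obtained by one-site fit.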

hNTS2 receptor = biological target: T2, hNTS2 receptor (Homo sapiens, UniProt O95665); assay: Competitive radioligand binding assay on the hNTS2 receptor; details: for IC50: IC50 NTS2, displacement of 125I-[Tyr3]-NT, membranes of 1321N1 cells expressing hNTS2; for Selectivity: ratio IC50 for NTS1 : IC50 for NTS2
T2 construct: membranes prepared from them
Summary of the method: as §1

T1 sequence (P30989 whole entry): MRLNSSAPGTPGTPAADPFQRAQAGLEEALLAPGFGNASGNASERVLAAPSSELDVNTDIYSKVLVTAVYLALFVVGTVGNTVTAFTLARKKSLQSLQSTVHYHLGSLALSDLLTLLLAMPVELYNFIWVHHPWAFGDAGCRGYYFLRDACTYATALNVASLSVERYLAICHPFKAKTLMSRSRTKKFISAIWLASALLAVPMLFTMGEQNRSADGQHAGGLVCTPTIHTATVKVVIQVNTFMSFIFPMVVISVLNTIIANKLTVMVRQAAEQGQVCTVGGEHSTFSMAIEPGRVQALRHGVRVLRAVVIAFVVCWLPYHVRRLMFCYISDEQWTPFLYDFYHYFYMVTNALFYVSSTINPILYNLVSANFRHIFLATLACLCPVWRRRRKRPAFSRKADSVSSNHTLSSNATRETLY
T2 sequence (O95665 whole entry): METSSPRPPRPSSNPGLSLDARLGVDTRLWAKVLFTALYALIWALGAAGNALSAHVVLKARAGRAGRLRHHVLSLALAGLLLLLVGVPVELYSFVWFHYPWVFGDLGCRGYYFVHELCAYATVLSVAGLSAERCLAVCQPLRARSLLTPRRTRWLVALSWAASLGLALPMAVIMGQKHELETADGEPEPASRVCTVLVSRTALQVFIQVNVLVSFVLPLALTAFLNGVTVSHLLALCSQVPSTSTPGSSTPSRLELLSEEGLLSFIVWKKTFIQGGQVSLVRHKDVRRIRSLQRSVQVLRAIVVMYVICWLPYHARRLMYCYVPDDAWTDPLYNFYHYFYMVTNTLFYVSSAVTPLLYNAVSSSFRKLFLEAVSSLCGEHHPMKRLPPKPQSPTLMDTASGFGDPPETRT

CC(C)C[C@H](NC(=O)[C@H](Cc1ccc(O)cc1)NC(=O)[C@@H]1CC=CC[C@H](N)C(=O)N[C@@H](CCCCN)C(=O)N[C@@H](CCCCN)C(=O)N1)C(=O)O [compound 34, c[G(All)KKG(All)]YL] (H-[AllylGly]KK[AllylGly]YL-OH; staple 1-4)
Hypotension (i.v.) ([1]; 0.01, 0.1, 1 mg/kg i.v.): no significant hypotension | Hypothermia (i.t.) ([2]; 150 μg/kg i.t.): no significant variation in body temperature; also recorded: No hypothermia | IC50 (hNTS1 receptor): 199 µM and 100 µM | IC50 (hNTS2 receptor): 0.0596 µM | Selectivity (hNTS2 receptor): 3339 and 1685

NCCCC[C@@H]1NC(=O)[C@H](CCCCN)NC(=O)[C@@H](N)CC=CC[C@@H](C(=O)N[C@@H](Cc2ccc(O)cc2)C(=O)N[C@@H](CC2CCCC2)C(=O)O)NC1=O [compound 67, c[G(All)KKG(All)]YA(cyclopentyl)] (H-[AllylGly]KK[AllylGly]Y[Ala(cPent)]-OH; staple 1-4)
Hypotension (i.v.) ([1]; 1 mg/kg i.v.): no significant hypotension | Hypothermia (i.t.) ([2]; 209 nmol/kg i.t.): no significant variation in body temperature; also recorded: No hypothermia | IC50 (hNTS1 receptor): > 100 µM | IC50 (hNTS2 receptor): 0.00306 µM | Selectivity (hNTS2 receptor): >32 680

Reference: US12358948B2, “Neurotensinergic agonists and methods of using same preventing or treating pain” (priority 2019, dated 2025)
